Laboratory results: patent US20260284069A1, “PARG INHIBITORY COMPOUNDS” (FoRx Therapeutics AG, priority 2023, published 2026)
Counter-ions that a name gives are not always drawn. Like-named read-outs stand apart in the source and are kept apart here.

Columns and labels:
human PARG = target: T1, human PARG (Homo sapiens, UniProt Q86W56, A967T/C963S/D927K/H446G/I916T/L447S/L473S/M841I/N479S/R811K/S802A/S858P/T924D); experiment: PARG enzymatic IC50 assay; assay type: biochemical; details: PARG protein, 2 hours incubation; substrate ADP-ribose-pNP, absorbance 405 nm; read-out: IC50 determined in PARG enzymatic assay
T1 construct: human PARG (448-976 [H446G, L447S, L473S); 6His-TwinStrep (protease-cleavable) (N, cleaved yes); Gly-Ser at positions 446-447, given as H446G, L447S; host or cells: E. coli BL21 (DE3)
T1 sequence (Q86W56 446-976 H446G/L447S/L473S/N479S/S802A/R811K/M841I/S858P/I916T/T924D/D927K/C963S/A967T): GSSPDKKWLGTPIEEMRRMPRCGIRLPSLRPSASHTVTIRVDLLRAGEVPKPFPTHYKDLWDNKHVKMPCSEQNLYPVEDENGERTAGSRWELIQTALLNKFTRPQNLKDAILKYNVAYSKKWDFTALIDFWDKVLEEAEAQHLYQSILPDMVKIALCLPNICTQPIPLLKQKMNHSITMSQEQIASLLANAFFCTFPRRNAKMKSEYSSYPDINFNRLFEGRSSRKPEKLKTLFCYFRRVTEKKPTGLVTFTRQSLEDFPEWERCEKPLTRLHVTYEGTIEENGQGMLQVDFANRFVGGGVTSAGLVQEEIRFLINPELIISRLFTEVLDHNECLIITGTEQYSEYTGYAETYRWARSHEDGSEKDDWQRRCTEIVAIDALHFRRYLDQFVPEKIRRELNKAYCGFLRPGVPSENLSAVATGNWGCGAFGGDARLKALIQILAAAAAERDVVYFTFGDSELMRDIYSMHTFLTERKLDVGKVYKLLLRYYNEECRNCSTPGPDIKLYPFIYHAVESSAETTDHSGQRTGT
Method: A codon optimized gene encoding human PARG (448-976 [H446G, L447S, L473S, N479S, S802A, R811K, M841I, S858P, I916T, T924D, D927K, C963S, A967T]) was synthesized by Genscript, and cloned into pET15b (NcoI/BamHI) with an N-terminal, […] protease cleavable 6His-TwinStrep tag. Expression of the protein in E. coli BL21 (DE3) was induced by addition of 0.2 mM IPTG to a shake flask culture grown to OD600=0.8 at 37° C. Growth was allowed to continue at 30° C. for a further 20 hours before harvesting by centrifugation and storage of the cell pellet at −80° C.
Protein was purified by IMAC and SEC: frozen cell pellets (typically 40 g wet weight) were resuspended by homogenization in 5 volumes buffer A (25 mM Tris/HCl pH 8.0, 200 mM NaCl, 2 mM DTT), supplemented with 1 mg of DNase I from bovine pancreas (Sigma-Aldrich) and protease inhibitors (Roche Complete™ EDTA-free protease inhibitor tablet), and lysed by passage through a Constant Systems BasicZ homogenizer. The lysate was clarified by centrifugation for 60 minutes at 25,000 g, 4° C., and the lysate supernatant was loaded onto 5 ml StrepTrap HP (Cytiva) pre-equilibrated with buffer A. The column was washed with buffer A (~10 CV), then buffer B containing 1M KCl (~5 CV), and then the protein was eluted with buffer A containing 2.5 mM d-Desthiobiotin. Pooled fractions containing 6HisTwinStrep-TEV-hPARG were incubated with TEV protease overnight at 4° C. hPARG was separated from uncleaved material and […] protease through gel filtration with Superdex75 sizing column (GE Healthcare) pre-equilibrated with SEC buffer (15 mM Tris/HCl pH 8.5, 100 mM NaCl, 2 mM DTT). Pooled fractions containing pure hPARG were concentrated using a 10 k MWCO spin concentrator (VivaSpin) to 10 mg/mL, and then either used immediately for crystallisation or snap-frozen in liquid nitrogen for storage at −80° C.
PARG enzyme as incubated with compound or vehicle (DMSO) for 2 hours in a 384 well plate. After adding the PARG substrate ADP-ribose-pNP, the plate was read for absorbance intensity at 405 nm. The vehicle (DMSO) with high absorbance intensity represents no inhibition of enzymatic reaction while the low control (no enzyme) with low absorbance intensity represents full inhibition of enzymatic reaction.
• hPARG: Peak Protein, 30 nM • Substrate: ADP-pNP, 800 μM, Jena Bioscience catalog #NU-955 • Reaction time: 60 minutes • Assay buffer: 50 mM Tris-HCl pH 8.0, 100 mM NaCl, 2 mM DTT • Temperature: 30° C. • Total volume: 30 μL
• 0% inhibition control: DMSO • 100% inhibition control: No enzyme
The protocol that was used for enzyme reaction and detection is as follows: • 1. Transfer 100 nL of the final concentration of test compounds or vehicle (DMSO) to the appropriate wells of a microtiter plate. • 2. Centrifuge the plate at 1000 rpm for 1 minute. • 3. Transfer 14.6 μL of 2× final concentration of enzyme in assay buffer or assay buffer alone to the appropriate wells. • 4. Centrifuge the plate at 1000 rpm for 1 minute. • 5. Incubate the plate at room temperature for 15 minutes or 2 hours. • 6. Transfer 15.4 μL of 2× substrate in assay buffer to all the test wells. • 7. Centrifuge the plate at 1000 rpm for 1 minute. • 8. Read the plate on a plate reader (e.g., Spark Tecan).

NCIH-460 cells = experiment: Cellular viability assay (NCIH-460, PARG-inhibition sensitive cell line); assay type: cell-based; details: Cell Titer-Glo, read-out: EC50 determined in NCIH-460 cells, cellular viability assay
Method: (§1) NCIH-460 as a PARG-inhibition sensitive cell line and U2OS as PARG-inhibition insensitive cell line were plated at 1000 cells/well and 2000 cells/well, respectively, in 96-well white plates with clear flat bottom. After 24 hours, the compounds were added with the Tecan digital dispenser (D300e), in duplicates. The outer wells of the plate were excluded. After 96 hours of incubation, 150 μl of the growth medium were removed and 50 μl of Cell Titer-Glo (Promega) were added per well. Following an incubation of 10 minutes, luminescence was read using a plate reader (Tecan). Averaged values of the samples were normalized to DMSO treated control samples. Curves were fit as % of the control vs. log of the compound concentration using a 4 parameter log-logistic function: […]

U2OS cells = experiment: Cellular viability assay (U2OS, PARG-inhibition insensitive cell line); assay type: cell-based; details: 96 hours incubation, Cell Titer-Glo, read-out: EC50 determined in U2OS cells, cellular viability assay
Method: as §1

PARG = target: T2, PARG (Homo sapiens, UniProt Q86W56); experiment: Cellular PAR chain assay; assay type: cell-based; details: U2OS cells, 1 hour compound pretreatment then 1-hour TMZ treatment; % PAR chain positive cells by flow cytometry; read-out: EC50 determined in cellular PAR chain assay
T2 construct: endogenous in cells; host or cells: U2OS
T2 sequence (Q86W56 whole entry): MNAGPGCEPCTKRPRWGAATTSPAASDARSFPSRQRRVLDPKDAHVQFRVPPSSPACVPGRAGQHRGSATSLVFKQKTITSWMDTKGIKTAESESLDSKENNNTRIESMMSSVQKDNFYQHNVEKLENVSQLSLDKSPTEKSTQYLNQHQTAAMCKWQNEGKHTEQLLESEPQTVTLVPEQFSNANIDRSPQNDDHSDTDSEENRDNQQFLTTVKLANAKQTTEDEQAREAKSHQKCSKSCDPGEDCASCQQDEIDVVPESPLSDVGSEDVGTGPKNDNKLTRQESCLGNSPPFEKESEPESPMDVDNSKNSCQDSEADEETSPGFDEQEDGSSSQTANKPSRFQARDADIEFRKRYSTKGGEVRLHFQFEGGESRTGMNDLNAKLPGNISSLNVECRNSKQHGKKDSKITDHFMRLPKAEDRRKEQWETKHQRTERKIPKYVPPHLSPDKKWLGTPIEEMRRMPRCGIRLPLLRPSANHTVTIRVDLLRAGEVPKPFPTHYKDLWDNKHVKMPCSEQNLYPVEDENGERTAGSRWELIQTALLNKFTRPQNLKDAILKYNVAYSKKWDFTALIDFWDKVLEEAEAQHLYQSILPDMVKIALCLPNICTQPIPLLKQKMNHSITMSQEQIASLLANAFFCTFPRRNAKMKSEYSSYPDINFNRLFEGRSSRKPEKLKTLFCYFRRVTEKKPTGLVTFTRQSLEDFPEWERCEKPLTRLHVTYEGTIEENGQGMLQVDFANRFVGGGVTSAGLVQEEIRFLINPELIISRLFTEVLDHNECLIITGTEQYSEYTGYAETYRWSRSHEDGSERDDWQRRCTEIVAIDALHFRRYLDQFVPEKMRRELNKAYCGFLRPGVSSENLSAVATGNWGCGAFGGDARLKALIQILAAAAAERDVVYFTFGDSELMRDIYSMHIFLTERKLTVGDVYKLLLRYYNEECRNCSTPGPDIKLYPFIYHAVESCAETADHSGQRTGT
Method: The ability of compounds to inhibit PARG in response to DNA damage, was assessed with U2OS cells pretreated with the compounds for 1 hour, following a 1-hour treatment with the DNA alkylating agent temozolomide (TMZ). […] The cells were incubated for 2 hours at room temperature with a mouse monoclonal antibody against poly (ADP) ribose (PAR) polymer. The cells were washed and incubated with an anti-mouse Alexa-488 conjugated secondary antibody for 1 hour at room temperature. Propidium iodide staining was used to determine DNA content in the cells (staining at 4° C. overnight). The fluorescence intensity of the cells was assessed by flow cytometry (Cytoflex from Beckmann) and the percentage of PAR chain positive cells (gated in relation to TMZ+DMSO treated control) was determined. PAR chain positive cells % were fit against the concentration of the compound using a 4 parameter log-logistic function, generating PAR chain EC50 values: […]

[1] = Homo sapiens, NCI-H460, 96 h, 96 hours incubation

Row | IC50 (human PARG) [µM] | EC50 (U2OS cells; Homo sapiens, U2OS, 96 h) [µM] | EC50 (U2OS cells) [µM] | EC50 (PARG) [µM] | Structure (SMILES) | EC50 (NCIH-460 cells; 96 hours incubation) [µM] | EC50 (NCIH-460 cells; [1]) [µM] | EC50 (NCIH-460 cells; Homo sapiens, NCI-H460, 96 hours incubation) [µM] | EC50 (U2OS cells; Homo sapiens) [µM]
1 | 0.015 | > 11.9 | – | – | CC1(C)CN(c2cc(S(=O)(=O)NC3(C)CC3)cn3c(-c4nnc(C(F)F)s4)ncc23)CC(CO)N1 (single isomer, unassigned) [Example 14a, (R or S)-3-(5-(difluoromethyl)-1,3,4-thiadiazol-2-yl)-8-(5-(hydroxymethyl)-3,3-dimethylpiperazin-1-yl)-N-(1-methylcyclopropyl)imidazo[1,5-a]pyridine-6-sulfonamide] | 1.79 | – | – | –
2 | 0.012 | – | > 11.4 | – | CC1(C)CN(c2cc(S(=O)(=O)NC3(C)CC3)cn3c(-c4nnc(C(F)F)s4)ncc23)CC(CO)N1 (single isomer, unassigned) [Example 14b, (S or R)-3-(5-(difluoromethyl)-1,3,4-thiadiazol-2-yl)-8-(5-(hydroxymethyl)-3,3-dimethylpiperazin-1-yl)-N-(1-methylcyclopropyl)imidazo[1,5-a]pyridine-6-sulfonamide] | 0.0774 | – | – | –
3 | 0.011 | 12.6 | – | – | C[C@H]1CN(c2cc(S(=O)(=O)NC3(C)CC3)cn3c(-c4nnc(C(F)F)s4)cnc23)C[C@H](C)N1 [Example 1, 3-(5-(difluoromethyl)-1,3,4-thiadiazol-2-yl)-8-((3S,5S)-3,5-dimethylpiperazin-1-yl)-N-(1-methylcyclopropyl)imidazo[1,2-a]pyridine-6-sulfonamide formate] | – | 0.07 | – | –
4 | 0.011 | 13.3 | – | – | CC1(NS(=O)(=O)c2cc(C3=CCNCC3(F)F)c3c(Cl)nc(-c4nnc(C(F)F)s4)n3c2)CC1 [Example 2, 1-chloro-8-(3,3-difluoro-1,2,3,6-tetrahydropyridin-4-yl)-3-(5-(difluoromethyl)-1,3,4-thiadiazol-2-yl)-N-(1-methylcyclopropyl)imidazo[1,5-a]pyridine-6-sulfonamide] | – | 0.199 | – | –
5 | 0.012 | > 11 | – | – | COC[C@H]1CN(c2cc(S(=O)(=O)NC3(C)CC3)cn3c(-c4nnc(C(F)F)s4)ncc23)C[C@H](COC)N1 [Example 3, 8-((3R,5R)-3,5-bis(methoxymethyl)piperazin-1-yl)-3-(5-(difluoromethyl)-1,3,4-thiadiazol-2-yl)-N-(1-methylcyclopropyl)imidazo[1,5-a]pyridine-6-sulfonamide formate] | – | 0.019 | – | –
6 | 0.011 | > 20 | – | – | CN=S1(=O)CCN(c2cc(S(=O)(=O)NC3(C)CC3)cn3c(-c4nnc(C(F)F)s4)ncc23)CC1C (stereo not drawn) [Example 4, (Cis or Trans)-3-(5-(difluoromethyl)-1,3,4-thiadiazol-2-yl)-8-(2-methyl-1-(methylimino)-1-oxido-116-thiomorpholino)-N-(1-methylcyclopropyl)imidazo[1,5-a]pyridine-6-sulfonamide] | – | 0.111 | – | –
7 | – | – | > 20 | – | CN=S1(=O)CCN(c2cc(S(=O)(=O)NC3(C)CC3)cn3c(-c4nnc(C(F)F)s4)ncc23)CC1C (stereo not drawn) [Example 5, (Trans or Cis)-3-(5-(difluoromethyl)-1,3,4-thiadiazol-2-yl)-8-(2-methyl-1-(methylimino)-1-oxido-116-thiomorpholino)-N-(1-methylcyclopropyl)imidazo[1,5-a]pyridine-6-sulfonamide] | 0.208 | – | – | –
8 | 0.011 | > 20 | – | – | CC1CN(c2cc(S(=O)(=O)NC3(C)CC3)cn3c(-c4nnc(C(F)F)s4)ncc23)CC2(CC2)N1 (centres unmarked) [Example 10, 3-(5-(difluoromethyl)-1,3,4-thiadiazol-2-yl)-8-(5-methyl-4,7-diazaspiro[2.5]octan-7-yl)-N-(1-methylcyclopropyl)imidazo[1,5-a]pyridine-6-sulfonamide formate] | – | 0.418 | – | –
9 | 0.011 | 3.87 | – | 0.006 | CC1(NS(=O)(=O)c2cc(C3=CCNCC3)c3c(C(F)(F)F)nc(-c4nnc(C(F)F)s4)n3c2)CC1 [Example 12, 3-(5-(difluoromethyl)-1,3,4-thiadiazol-2-yl)-N-(1-methylcyclopropyl)-8-(1,2,3,6-tetrahydropyridin-4-yl)-1-(trifluoromethyl)imidazo[1,5-a]pyridine-6-sulfonamide formate] | – | 0.094 | – | –
10 | 0.016 | 3.59 | – | 0.005 | C[C@H]1CN(c2cc(S(=O)(=O)NC3(C)CC3)cn3c(-c4nnc(C(F)F)s4)nc(F)c23)C[C@H](C)N1 [Example 13, 3-(5-(difluoromethyl)-1,3,4-thiadiazol-2-yl)-8-((3S,5S)-3,5-dimethylpiperazin-1-yl)-1-fluoro-N-(1-methylcyclopropyl)imidazo[1,5-a]pyridine-6-sulfonamide] | – | 0.035 | – | –
11 | 0.011 | 9.52 | – | – | CC1(C)CN(c2cc(S(=O)(=O)NC3(C)CC3)cn3c(-c4nnc(C(F)F)s4)ncc23)CC(CO)N1 (centres unmarked) [Example 14, 3-(5-(difluoromethyl)-1,3,4-thiadiazol-2-yl)-8-(5-(hydroxymethyl)-3,3-dimethylpiperazin-1-yl)-N-(1-methylcyclopropyl)imidazo[1,5-a]pyridine-6-sulfonamide] | – | 0.094 | – | –

Row | Structure (SMILES) | IC50 (human PARG) [µM] | EC50 (U2OS cells; Homo sapiens, U2OS, 96 h) [µM] | EC50 (U2OS cells) [µM] | EC50 (PARG) [µM] | EC50 (NCIH-460 cells; 96 hours incubation) [µM] | EC50 (NCIH-460 cells; [1]) [µM] | EC50 (NCIH-460 cells; Homo sapiens, NCI-H460, 96 hours incubation) [µM] | EC50 (U2OS cells; Homo sapiens) [µM]
12 | CC1(NS(=O)(=O)c2cc(C3=CCNCC3)c3c(C4CC4)nc(-c4nnc(C(F)F)s4)n3c2)CC1 [Example 11, 1-cyclopropyl-3-(5-(difluoromethyl)-1,3,4-thiadiazol-2-yl)-N-(1-methylcyclopropyl)-8-(1,2,3,6-tetrahydropyridin-4-yl)imidazo[1,5-alpyridine-6-sulfonamide formate] | 0.016 | – | – | 0.009 | – | – | 0.074 | 1720
